The source of these data is patent publication US11701315B2, “High energy visible light filter systems with yellowness index values” (High Performance Optics, Inc., priority 2006, dated 2023).

For data set [1] the following is noted: in methanol, cited from earlier work.
A short description of data set [2]: Transmission and absorption properties stated in the text for known lenses and dyes. It counts as physicochemical.

Regarding `CC1=C(/C=C/C(C)=C/C=C/C(C)=C/c2cc(/C=C/C=C(C)/C=C/C3=C(C)CCCC3(C)C)cc[n+]2CCO)C(C)(C)CCC1` [A2E], the “maximum of excitation spectrum” value in data set [1] (monitored at 600 nm emission) was 418 nm. For the same molecule, in data set [1], the “major peak of absorbance spectrum” value was 435 nm.
Turning to `c1cc2cccc3c4cccc5cccc(c(c1)c23)c54` [perylene], the absorption maximum in data set [2] was found to be 437 nm.
